Test results taken from PubChem BioAssay (NCI).
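In this assay, cells in 96-well plates receive the compound at five concentrations for 48 hours. Endpoints are linearly interpolated between the surrounding concentrations. At the GI50, growth is halved. Definition used: TGI = concentration required for complete inhibition of growth.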

What was measured:
Experiment in all cases: NCI-60 cell line screen, 48 h
SK-MEL-2 melanoma = system: SK-MEL-2 melanoma
HOP-62 NSCLC = system: HOP-62 NSCLC
SR leukemia = system: SR leukemia
RPMI-8226 leukemia = system: RPMI-8226 leukemia
T-47D breast = system: T-47D breast
KM12 colon = system: KM12 colon
HCT-15 colon = system: HCT-15 colon
SF-295 CNS = system: SF-295 CNS
PC-3 prostate = system: PC-3 prostate
NCI-H226 lung = system: NCI-H226 lung
MDA-MB-231 breast = system: MDA-MB-231 breast
CAKI-1 renal = system: CAKI-1 renal
SW-620 colon = system: SW-620 colon
SNB-19 CNS = system: SNB-19 CNS
U251 CNS = system: U251 CNS
TK-10 renal = system: TK-10 renal
NCI/ADR-RES ovarian = system: NCI/ADR-RES ovarian
CCRF-CEM leukemia = system: CCRF-CEM leukemia
OVCAR-3 ovarian = system: OVCAR-3 ovarian
OVCAR-5 ovarian = system: OVCAR-5 ovarian
HOP-92 NSCLC = system: HOP-92 NSCLC
OVCAR-8 ovarian = system: OVCAR-8 ovarian
OVCAR-4 ovarian = system: OVCAR-4 ovarian
SN12C renal = system: SN12C renal
MOLT-4 leukemia = system: MOLT-4 leukemia
NCI-H460 lung = system: NCI-H460 lung
NCI-H23 lung = system: NCI-H23 lung
SNB-75 CNS = system: SNB-75 CNS
SK-MEL-28 melanoma = system: SK-MEL-28 melanoma
SF-268 CNS = system: SF-268 CNS
HS 578T breast = system: HS 578T breast
A498 renal = system: A498 renal
UACC-257 melanoma = system: UACC-257 melanoma
A549 NSCLC = system: A549 NSCLC
SK-OV-3 ovarian = system: SK-OV-3 ovarian
DU-145 prostate = system: DU-145 prostate
MDA-MB-435 = system: MDA-MB-435
IGROV1 ovarian = system: IGROV1 ovarian

`CC(C)=CCC/C(C)=C/CC/C(C)=C/CC/C(C)=C/CSC[C@H](NC(=O)CCCCCN1CCN(C)CC1)C(=O)NC1CCCCC1` showed a GI50 (SK-MEL-2 melanoma) of 4.11 µM, a TGI (SK-MEL-2 melanoma) of 14.5 µM and a GI50 (HOP-62 NSCLC) of 8.63 µM. The TGI (HOP-62 NSCLC) was 32.2 µM, the GI50 (SR leukemia) was 2.44 µM and the TGI (SR leukemia) was 6.27 µM. It also gave a GI50 (RPMI-8226 leukemia) of 2.14 µM, a TGI (RPMI-8226 leukemia) of 5.13 µM and a GI50 (T-47D breast) of 2.31 µM. The TGI (T-47D breast) was 7.02 µM, the GI50 (KM12 colon) was 2.03 µM and the TGI (KM12 colon) was 4.01 µM. The GI50 (HCT-15 colon) was 1.78 µM, the TGI (HCT-15 colon) was 3.47 µM and the GI50 (SF-295 CNS) was 1.74 µM. For the same compound, the TGI (SF-295 CNS) was 3.51 µM, the GI50 (PC-3 prostate) was 1.76 µM and the TGI (PC-3 prostate) was 3.49 µM. It also gave a GI50 (NCI-H226 lung) of 24 µM, a TGI (NCI-H226 lung) of 98.2 µM and a GI50 (MDA-MB-231 breast) of 2 µM. For the same compound, the TGI (MDA-MB-231 breast) was 3.84 µM, the GI50 (CAKI-1 renal) was 3.08 µM and the TGI (CAKI-1 renal) was 11 µM. It also gave a GI50 (SW-620 colon) of 1.91 µM, a TGI (SW-620 colon) of 3.81 µM and a GI50 (SNB-19 CNS) of 2.27 µM. The TGI (SNB-19 CNS) was 5.71 µM, the GI50 (U251 CNS) was 1.81 µM and the TGI (U251 CNS) was 3.52 µM. It also gave a GI50 (TK-10 renal) of 11.7 µM, a TGI (TK-10 renal) of 30.5 µM and a GI50 (NCI/ADR-RES ovarian) of 8.98 µM. It also gave a TGI (NCI/ADR-RES ovarian) of 33.8 µM, a GI50 (CCRF-CEM leukemia) of 2.51 µM and a TGI (CCRF-CEM leukemia) of 7.67 µM. For the same compound, the GI50 (OVCAR-3 ovarian) was 2.66 µM, the TGI (OVCAR-3 ovarian) was 6.49 µM and the GI50 (OVCAR-5 ovarian) was 2.05 µM. For the same compound, the TGI (OVCAR-5 ovarian) was 5.25 µM, the GI50 (HOP-92 NSCLC) was 2.13 µM and the TGI (HOP-92 NSCLC) was 11.3 µM. The GI50 (OVCAR-8 ovarian) was 3.4 µM, the TGI (OVCAR-8 ovarian) was 14.3 µM and the GI50 (OVCAR-4 ovarian) was 3.51 µM. For the same compound, the TGI (OVCAR-4 ovarian) was 15.5 µM, the GI50 (SN12C renal) was 2.36 µM and the TGI (SN12C renal) was 6.19 µM. The GI50 (MOLT-4 leukemia) was 3.17 µM, the TGI (MOLT-4 leukemia) was 8.44 µM and the GI50 (NCI-H460 lung) was 1.94 µM. For the same compound, the TGI (NCI-H460 lung) was 3.73 µM, the GI50 (NCI-H23 lung) was 4.73 µM and the TGI (NCI-H23 lung) was 23.4 µM. For the same compound, the GI50 (SNB-75 CNS) was 4.16 µM, the TGI (SNB-75 CNS) was 21 µM and the GI50 (SK-MEL-28 melanoma) was 1.79 µM. For the same compound, the TGI (SK-MEL-28 melanoma) was 3.43 µM, the GI50 (SF-268 CNS) was 4.05 µM and the TGI (SF-268 CNS) was 17.5 µM. For the same compound, the GI50 (HS 578T breast) was 3.54 µM, the TGI (HS 578T breast) was 17.4 µM and the GI50 (A498 renal) was 14.4 µM. For the same compound, the TGI (A498 renal) was 34.2 µM, the GI50 (UACC-257 melanoma) was 2.09 µM and the TGI (UACC-257 melanoma) was 4.93 µM. It also gave a GI50 (A549 NSCLC) of 3.36 µM, a TGI (A549 NSCLC) of 14 µM and a GI50 (SK-OV-3 ovarian) of 13 µM. For the same compound, the TGI (SK-OV-3 ovarian) was 32.5 µM, the GI50 (DU-145 prostate) was 2.08 µM and the TGI (DU-145 prostate) was 4.07 µM. It also gave a GI50 (MDA-MB-435) of 1.66 µM, a TGI (MDA-MB-435) of 3.07 µM and a GI50 (IGROV1 ovarian) of 2.91 µM. The TGI (IGROV1 ovarian) was 7.76 µM.
